This note sets out measurements from patent publication US7598206B2, “Fungicidal mixtures” (BASF Aktiengesellschaft, priority 2004, dated 2009).

Common to all, as to format: in vivo
Test [1] concerns Botrytis cinerea. The test can be described thus: Use example 1: activity against gray mold on bell pepper leaves, 1 day protective application. To be noted: efficacy in % of untreated control (Abbot), sprayed 1 day before inoculation, rated after 5 days, read-out: Observed activity (%). Here is the method: (§1) The active compounds were prepared jointly or separately as a stock solution with 25 mg of active compound which was made up to 10 ml using a mixture of acetone and/or DMSO and the emulsifier Uniperol® EL (wetting agent having emulsifying and dispersing action based on ethoxylated alkylphenols) in a volume ratio of solvent/emulsifier of 99 to 1. The mixture was then made up with water to 100 ml. This stock solution was diluted with the solvent/emulsifier/water mixture described to the concentration of active compounds stated below.
(§2) The active compounds epoxiconazole and pyraclostrobin were used as commercial formulations and diluted with water to the stated concentration.
(§3) The visually determined percentages of infected leaf areas were converted into efficacies in % of the untreated control:
(§4) The efficacy (E) is calculated as follows using Abbot's formula: E=(1−α/β)·100 • α corresponds to the fungicidal infection of the treated plants in % and • β corresponds to the fungicidal infection of the untreated (control) plants in % […]
(§5) The expected efficacies of mixtures of active compounds were determined using Colby's formula (Colby, S. R. “Calculating synergistic and antagonistic responses of herbicide combinations”, Weeds, 15, 1967, p. 20-22) and compared with the observed efficacies. […]

The subject of test [2] is Botrytis cinerea. The test can be described thus: Use example 2: activity against gray mold on bell pepper leaves, 5 day protective application. To be noted: sprayed 5 days before inoculation, read-out: Observed activity (%). The method, then: as §1, §2, §3
The efficacy (E) is calculated as follows using Abbot's formula: E=(1−α/β)·100 • α corresponds to the fungicidal infection of the treated plants in % and • β corresponds to the fungicidal infection of the untreated (control) plants in %
An efficacy of 0 means that the infection level of the treated plants corresponds to that of the untreated control plants; an efficacy of 100 means that the treated plants were not infected.
The expected efficacies of mixtures of active compounds were determined using Colby's formula (Colby, S. R. “Calculating synergistic and antagonistic responses of herbicide combinations”, Weeds, 15, 1967, p. 20-22) and compared with the observed efficacies.
Colby's formula: E=x+y−x·y/100 • E expected efficacy, expressed in % of the untreated control, when using the mixture of the active compounds A and B at the concentrations a and b • x efficacy, expressed in % of the untreated control, when using the active compound A at the concentration a • y efficacy, expressed in % of the untreated control, when using the active compound B at the concentration b
Use example 2-activity against gray mold on bell pepper leaves caused by Botrytis cinerea, 5 day protective application
Bell pepper seedlings of the cultivar “Neusiedler Ideal Elite” were, after 2-3 leaves were well developed, sprayed to runoff point with an aqueous suspension having the active compound concentration given below. After 5 days, the treated plants were inoculated with a spore suspension of Botrytis cinerea which comprised 1.7×10^6 spores/ml in a 2% strength aqueous biomalt solution. The test plants were then placed in a dark climatized chamber at 22 to 24° C. and high atmospheric humidity. After 5 days, the extent of the fungal infection on the leaves could be determined visually in %.

Test [3] deals with Alternaria solani. The experiment in a line: Use example 3: 5 day protective activity against early blight of tomato. The following applies: sprayed 5 days before infection, rated after 5 days, read-out: Observed activity (%). The method, then:
as §1, §2, §3, §4, §5

With `Fc1ccc([C@]2(Cn3cncn3)O[C@H]2c2ccccc2Cl)cc1` (racemic) [epoxiconazole (A7), (2RS,3SR)-1-[3-(2-chlorophenyl)-2,3-epoxy-2-(4-fluorophenyl)propyl]-1H-1,2,4-triazole], the inhibition at 4 ppm in test [1] was 0%.
`CN1OC(c2ccc(Cl)cc2)CC1(C)c1cccnc1` (centres unmarked) [SYP-Z048 (I)]: the inhibition at 4 ppm in test [1] was found to be 70%. Moreover, in test [2] (16 ppm, rated after 5 days), the inhibition at 16 ppm worked out at 0%. The inhibition at 1 ppm in test [3] (1 ppm) worked out at 0%.
In the case of `O=C(Nc1ccccc1-c1ccc(Cl)cc1)c1cccnc1Cl` [boscalid (C3), 2-chloro-N-(4′-chlorobiphenyl-2-yl)nicotinamide], the inhibition at 4 ppm in test [2] (4 ppm) was determined as 0%; in test [3] (4 ppm), 56%.
As for `COC(=O)N(OC)c1ccccc1COc1ccn(-c2ccc(Cl)cc2)n1` [pyraclostrobin (B9), methyl N-{2-[1-(4-chlorophenyl)-1H-pyrazol-3-yloxymethyl]phenyl}(N-methoxy)carbamate], the inhibition at 63 ppm in test [2] (63 ppm, commercial formulation) stood at 20%.
Regarding `Cc1ccc(N(SC(F)(Cl)Cl)S(=O)(=O)N(C)C)cc1` [tolylfluanid (F29), N-dichlorofluoromethylthio-N′,N′-dimethyl-N-p-tolylsulfamide], the inhibition at 250 ppm in test [2] (250 ppm) is 20%.
